Literature values in patent publication US20230313389A1, “APPARATUS AND METHOD FOR THE ELECTROLYTIC PRODUCTION OF HYPOCHLOROUS ACID” (GROUPE OXWELL INC., priority 2020, published 2023).

What was measured:
[1] = tested on: viruses, including coronaviruses; conditions: variety of viruses
[2] = as disinfectant
[3] = under ideal conditions

OCl [HOCl, Hypochlorous acid]
time to inactivate viruses [1]: less than 1 minute | effectiveness relative to chlorine in the form of ClO- [2]: 100 times | shelf life (time HOCl is effective) [3]: up to 2 weeks
